Test results published in PubChem BioAssay (NCI).
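These data come from cells grown in 96-well plates and exposed to compound for 48 hours at five concentrations. GI50: concentration for 50% inhibition of growth. TGI is the concentration that stops growth completely.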

Columns and labels:
Experiment in all cases: NCI anticancer screen, dose series, 48 h
DU-145 prostate = test system: DU-145 prostate
NCI-H23 lung = test system: NCI-H23 lung
OVCAR-3 ovarian = test system: OVCAR-3 ovarian
NCI-H460 lung = test system: NCI-H460 lung
CCRF-CEM leukemia = test system: CCRF-CEM leukemia
786-0 renal = test system: 786-0 renal
COLO 205 colon = test system: COLO 205 colon
KM12 colon = test system: KM12 colon
MDA-MB-435 = test system: MDA-MB-435
MALME-3M melanoma = test system: MALME-3M melanoma
NCI-H226 lung = test system: NCI-H226 lung
IGROV1 ovarian = test system: IGROV1 ovarian
K-562 leukemia = test system: K-562 leukemia
M14 melanoma = test system: M14 melanoma
UACC-257 melanoma = test system: UACC-257 melanoma
RPMI-8226 leukemia = test system: RPMI-8226 leukemia
CAKI-1 renal = test system: CAKI-1 renal
SK-MEL-28 melanoma = test system: SK-MEL-28 melanoma
SK-MEL-5 melanoma = test system: SK-MEL-5 melanoma
HT29 colon = test system: HT29 colon
A549 NSCLC = test system: A549 NSCLC
OVCAR-5 ovarian = test system: OVCAR-5 ovarian
SF-539 CNS = test system: SF-539 CNS
SF-295 CNS = test system: SF-295 CNS
PC-3 prostate = test system: PC-3 prostate
SF-268 CNS = test system: SF-268 CNS
T-47D breast = test system: T-47D breast
OVCAR-4 ovarian = test system: OVCAR-4 ovarian
HS 578T breast = test system: HS 578T breast
SR leukemia = test system: SR leukemia
SK-OV-3 ovarian = test system: SK-OV-3 ovarian
MCF7 breast = test system: MCF7 breast
EKVX NSCLC = test system: EKVX NSCLC
ACHN renal = test system: ACHN renal
NCI-H522 lung = test system: NCI-H522 lung
SW-620 colon = test system: SW-620 colon
HCC-2998 colon = test system: HCC-2998 colon
TK-10 renal = test system: TK-10 renal
HCT-116 colon = test system: HCT-116 colon
OVCAR-8 ovarian = test system: OVCAR-8 ovarian
U251 CNS = test system: U251 CNS
MOLT-4 leukemia = test system: MOLT-4 leukemia
UACC-62 melanoma = test system: UACC-62 melanoma
A498 renal = test system: A498 renal
RXF 393 renal = test system: RXF 393 renal
NCI/ADR-RES ovarian = test system: NCI/ADR-RES ovarian
UO-31 renal = test system: UO-31 renal
HCT-15 colon = test system: HCT-15 colon
HOP-62 NSCLC = test system: HOP-62 NSCLC
MDA-MB-231 breast = test system: MDA-MB-231 breast
SK-MEL-2 melanoma = test system: SK-MEL-2 melanoma
HOP-92 NSCLC = test system: HOP-92 NSCLC
LOX IMVI melanoma = test system: LOX IMVI melanoma
SNB-75 CNS = test system: SNB-75 CNS
SN12C renal = test system: SN12C renal
SNB-19 CNS = test system: SNB-19 CNS
HL-60(TB) leukemia = test system: HL-60(TB) leukemia
BT-549 breast = test system: BT-549 breast

SMILES: C#C[C@]1(O)CC[C@H]2[C@@H]3CC=C4c5sc(Nc6ccncc6)nc5CC[C@]4(C)[C@H]3CC[C@@]21C
- GI50 (DU-145 prostate): 1.05 µM
- TGI (DU-145 prostate): 3.62 µM
- GI50 (NCI-H23 lung): 0.657 µM
- TGI (NCI-H23 lung): 2.52 µM
- GI50 (OVCAR-3 ovarian): 1.48 µM
- TGI (OVCAR-3 ovarian): 3.66 µM
- GI50 (NCI-H460 lung): 0.372 µM
- TGI (NCI-H460 lung): 1.4 µM
- GI50 (CCRF-CEM leukemia): 0.257 µM
- TGI (CCRF-CEM leukemia): 3.75 µM
- GI50 (786-0 renal): 0.12 µM
- TGI (786-0 renal): 0.648 µM
- GI50 (COLO 205 colon): 0.227 µM
- TGI (COLO 205 colon): 0.494 µM
- GI50 (KM12 colon): 0.387 µM
- TGI (KM12 colon): 1.78 µM
- GI50 (MDA-MB-435): 0.293 µM
- TGI (MDA-MB-435): 1.05 µM
- GI50 (MALME-3M melanoma): 0.266 µM
- TGI (MALME-3M melanoma): 0.994 µM
- GI50 (NCI-H226 lung): 1.62 µM
- TGI (NCI-H226 lung): 22.5 µM
- GI50 (IGROV1 ovarian): 0.531 µM
- TGI (IGROV1 ovarian): 2.05 µM
- GI50 (K-562 leukemia): 0.247 µM
- TGI (K-562 leukemia): 0.811 µM
- GI50 (M14 melanoma): 0.182 µM
- TGI (M14 melanoma): 0.398 µM
- GI50 (UACC-257 melanoma): 0.193 µM
- TGI (UACC-257 melanoma): 0.416 µM
- GI50 (RPMI-8226 leukemia): 0.042 µM
- TGI (RPMI-8226 leukemia): 0.25 µM
- GI50 (CAKI-1 renal): 0.345 µM
- TGI (CAKI-1 renal): 1.56 µM
- GI50 (SK-MEL-28 melanoma): 0.148 µM
- TGI (SK-MEL-28 melanoma): 0.394 µM
- GI50 (SK-MEL-5 melanoma): 0.467 µM
- TGI (SK-MEL-5 melanoma): 1.57 µM
- GI50 (HT29 colon): 0.308 µM
- TGI (HT29 colon): 1.29 µM
- GI50 (A549 NSCLC): 0.372 µM
- TGI (A549 NSCLC): 1.82 µM
- GI50 (OVCAR-5 ovarian): 1.06 µM
- TGI (OVCAR-5 ovarian): 3.13 µM
- GI50 (SF-539 CNS): 0.108 µM
- TGI (SF-539 CNS): 0.318 µM
- GI50 (SF-295 CNS): 0.0912 µM
- TGI (SF-295 CNS): 0.311 µM
- GI50 (PC-3 prostate): 0.243 µM
- TGI (PC-3 prostate): 1.35 µM
- GI50 (SF-268 CNS): 0.445 µM
- TGI (SF-268 CNS): 2.85 µM
- GI50 (T-47D breast): 0.973 µM
- TGI (T-47D breast): 3.99 µM
- GI50 (OVCAR-4 ovarian): 1.36 µM
- TGI (OVCAR-4 ovarian): 3.19 µM
- GI50 (HS 578T breast): 0.0645 µM
- TGI (HS 578T breast): 0.58 µM
- GI50 (SR leukemia): 0.0472 µM
- TGI (SR leukemia): 0.483 µM
- GI50 (SK-OV-3 ovarian): 0.268 µM
- TGI (SK-OV-3 ovarian): 0.78 µM
- GI50 (MCF7 breast): 0.232 µM
- TGI (MCF7 breast): 1.38 µM
- GI50 (EKVX NSCLC): 0.552 µM
- TGI (EKVX NSCLC): 3.16 µM
- GI50 (ACHN renal): 0.484 µM
- TGI (ACHN renal): 1.94 µM
- GI50 (NCI-H522 lung): 0.74 µM
- TGI (NCI-H522 lung): 2.22 µM
- GI50 (SW-620 colon): 0.284 µM
- TGI (SW-620 colon): 0.901 µM
- GI50 (HCC-2998 colon): 1.48 µM
- TGI (HCC-2998 colon): 2.93 µM
- GI50 (TK-10 renal): 1.01 µM
- TGI (TK-10 renal): 2.46 µM
- GI50 (HCT-116 colon): 0.309 µM
- TGI (HCT-116 colon): 1.2 µM
- GI50 (OVCAR-8 ovarian): 0.987 µM
- TGI (OVCAR-8 ovarian): 2.78 µM
- GI50 (U251 CNS): 0.103 µM
- TGI (U251 CNS): 1.16 µM
- GI50 (MOLT-4 leukemia): 0.216 µM
- TGI (MOLT-4 leukemia): 0.997 µM
- GI50 (UACC-62 melanoma): 0.223 µM
- TGI (UACC-62 melanoma): 0.595 µM
- GI50 (A498 renal): 0.204 µM
- TGI (A498 renal): 0.517 µM
- GI50 (RXF 393 renal): 0.0251 µM
- TGI (RXF 393 renal): 0.11 µM
- GI50 (NCI/ADR-RES ovarian): 1.26 µM
- TGI (NCI/ADR-RES ovarian): 4.48 µM
- GI50 (UO-31 renal): 0.227 µM
- TGI (UO-31 renal): 0.822 µM
- GI50 (HCT-15 colon): 0.261 µM
- TGI (HCT-15 colon): 1.19 µM
- GI50 (HOP-62 NSCLC): 0.266 µM
- TGI (HOP-62 NSCLC): 1.15 µM
- GI50 (MDA-MB-231 breast): 0.942 µM
- TGI (MDA-MB-231 breast): 3.28 µM
- GI50 (SK-MEL-2 melanoma): 0.342 µM
- TGI (SK-MEL-2 melanoma): 1.32 µM
- GI50 (HOP-92 NSCLC): 0.312 µM
- TGI (HOP-92 NSCLC): 1.33 µM
- GI50 (LOX IMVI melanoma): 0.2 µM
- TGI (LOX IMVI melanoma): 0.476 µM
- GI50 (SNB-75 CNS): 0.191 µM
- TGI (SNB-75 CNS): 1.93 µM
- GI50 (SN12C renal): 0.745 µM
- TGI (SN12C renal): 2.11 µM
- GI50 (SNB-19 CNS): 0.305 µM
- TGI (SNB-19 CNS): 4.64 µM
- GI50 (HL-60(TB) leukemia): 0.153 µM
- TGI (HL-60(TB) leukemia): 1.39 µM
- GI50 (BT-549 breast): 0.33 µM
- TGI (BT-549 breast): 1.62 µM
